Laboratory results: patent US20240327381A1, “Compounds and Compositions for Selective Degradation of Engineered Proteins” (Celgene Corporation, priority 2023, published 2024)

How the values were obtained:
Assay type in all cases: cell-based
[1] = molecular target: T1, IKZF1 ZNF2_ZNF3 Q1F degron-tagged CD19 CAR (Homo sapiens, UniProt Q13422, Q146F); assay: Degradation of Q1F degron-tagged CD19 CAR in Jurkat cells (flow cytometry of CAR levels); conditions: for DC50: Jurkat cells expressing CD19 CAR tagged with IKZF1 ZNF2_ZNF3 Q1F, 18 hours at 37° C., CAR levels normalized to untreated cells, read-out: Q1F Jurkat IC50; for Dmax: Ymax is the % protein degraded, Jurkat cells expressing Q1F degron-tagged CD19 CAR, 18 hours, read-out: Q1F Jurkat-YMax
T1 construct: ZNF2_ZNF3 Q1F degron (GERPFFCNQCGASFTQKGNLLRHIKLHSGEKPFKCHLCNYACRRRDALTGHLRTHS); fused on or other part: anti-CD19 scFv, CD28 transmembrane domain, 4-1BB costimulatory domain, CD3 zeta signaling domain (the CAR that carries the degron), and Nluc
Method in brief: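 Jurkat cells were lentivirally transduced with an anti-CD19 scFv/CD28 TM/4-1BB/CD3ζ CAR tagged with an IKZF1 ZNF2_ZNF3 Q1F degron–Nluc, then treated with compound titrations for 18 h at 37 °C. CAR surface levels were stained (20 min, 4 °C), read by flow cytometry and normalised to untreated cells. EC50 came from a four-parameter logistic fit; Ymin is the minimum % CAR remaining.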

Helios [2] = molecular target: T2, Helios (Homo sapiens, UniProt Q96SW2+Q9UKS7); assay: Helios degradation in Jurkat/Helios/HiBit cells (Nano-Glo luminescence); conditions: for Helios Jurkat Hibit YMax: Ymax is the % protein degraded, 18 hr
T2 construct: endogenous in cells; host or cells: Jurkat cells, CRISPR/Cas9 knock-in of HiBit at the IKZF2 locus
Method in brief: (§1)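 Jurkat cells carrying CRISPR-knocked-in C-terminal HiBit-tagged endogenous IKZF2 were treated with compound in DMEM/10% FCS (10,000 cells/well) for 18 h at 37 °C. HiBit signal was read by Nano-Glo luminescence after 30 min at RT. EC50 for degradation came from a four-parameter logistic fit, with Ymax as % protein degraded.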

Helios [3] = molecular target: T3, Helios (Homo sapiens, UniProt Q9UKS7); assay: as above; conditions: 18 hr, read-out: Helios Jurkat Hibit IC50
T3 construct: endogenous in cells; host or cells: Jurkat cells, CRISPR/Cas9 knock-in of HiBit at the IKZF2 locus
Method in brief: as §1

T2 sequence (Q9UKS7 whole entry): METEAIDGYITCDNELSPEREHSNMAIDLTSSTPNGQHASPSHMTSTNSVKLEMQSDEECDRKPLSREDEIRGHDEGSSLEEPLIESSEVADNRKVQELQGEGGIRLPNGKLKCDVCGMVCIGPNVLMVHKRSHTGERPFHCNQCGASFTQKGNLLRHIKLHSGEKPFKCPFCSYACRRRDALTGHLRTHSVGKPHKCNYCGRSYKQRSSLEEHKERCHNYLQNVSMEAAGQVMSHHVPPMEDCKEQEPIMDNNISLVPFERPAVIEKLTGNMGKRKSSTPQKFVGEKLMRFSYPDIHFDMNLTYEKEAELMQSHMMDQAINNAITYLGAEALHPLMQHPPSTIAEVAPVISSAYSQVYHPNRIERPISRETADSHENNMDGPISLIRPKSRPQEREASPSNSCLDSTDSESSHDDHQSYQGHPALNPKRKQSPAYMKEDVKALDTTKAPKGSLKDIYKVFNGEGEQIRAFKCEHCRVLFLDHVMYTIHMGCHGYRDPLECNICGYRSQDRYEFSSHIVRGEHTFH
T2 sequence (Q96SW2 whole entry): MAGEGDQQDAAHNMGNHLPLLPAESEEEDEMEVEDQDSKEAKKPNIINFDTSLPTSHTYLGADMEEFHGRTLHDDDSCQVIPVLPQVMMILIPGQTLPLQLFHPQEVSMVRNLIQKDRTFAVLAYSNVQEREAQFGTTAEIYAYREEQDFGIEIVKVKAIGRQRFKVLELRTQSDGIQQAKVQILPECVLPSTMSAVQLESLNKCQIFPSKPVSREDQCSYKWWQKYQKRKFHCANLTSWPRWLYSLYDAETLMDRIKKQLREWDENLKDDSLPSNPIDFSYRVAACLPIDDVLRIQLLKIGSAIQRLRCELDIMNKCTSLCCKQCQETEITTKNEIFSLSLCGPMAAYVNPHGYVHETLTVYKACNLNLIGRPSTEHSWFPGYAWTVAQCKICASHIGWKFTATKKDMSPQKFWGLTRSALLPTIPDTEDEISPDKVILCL
T2 sequence (Q16531 whole entry partner): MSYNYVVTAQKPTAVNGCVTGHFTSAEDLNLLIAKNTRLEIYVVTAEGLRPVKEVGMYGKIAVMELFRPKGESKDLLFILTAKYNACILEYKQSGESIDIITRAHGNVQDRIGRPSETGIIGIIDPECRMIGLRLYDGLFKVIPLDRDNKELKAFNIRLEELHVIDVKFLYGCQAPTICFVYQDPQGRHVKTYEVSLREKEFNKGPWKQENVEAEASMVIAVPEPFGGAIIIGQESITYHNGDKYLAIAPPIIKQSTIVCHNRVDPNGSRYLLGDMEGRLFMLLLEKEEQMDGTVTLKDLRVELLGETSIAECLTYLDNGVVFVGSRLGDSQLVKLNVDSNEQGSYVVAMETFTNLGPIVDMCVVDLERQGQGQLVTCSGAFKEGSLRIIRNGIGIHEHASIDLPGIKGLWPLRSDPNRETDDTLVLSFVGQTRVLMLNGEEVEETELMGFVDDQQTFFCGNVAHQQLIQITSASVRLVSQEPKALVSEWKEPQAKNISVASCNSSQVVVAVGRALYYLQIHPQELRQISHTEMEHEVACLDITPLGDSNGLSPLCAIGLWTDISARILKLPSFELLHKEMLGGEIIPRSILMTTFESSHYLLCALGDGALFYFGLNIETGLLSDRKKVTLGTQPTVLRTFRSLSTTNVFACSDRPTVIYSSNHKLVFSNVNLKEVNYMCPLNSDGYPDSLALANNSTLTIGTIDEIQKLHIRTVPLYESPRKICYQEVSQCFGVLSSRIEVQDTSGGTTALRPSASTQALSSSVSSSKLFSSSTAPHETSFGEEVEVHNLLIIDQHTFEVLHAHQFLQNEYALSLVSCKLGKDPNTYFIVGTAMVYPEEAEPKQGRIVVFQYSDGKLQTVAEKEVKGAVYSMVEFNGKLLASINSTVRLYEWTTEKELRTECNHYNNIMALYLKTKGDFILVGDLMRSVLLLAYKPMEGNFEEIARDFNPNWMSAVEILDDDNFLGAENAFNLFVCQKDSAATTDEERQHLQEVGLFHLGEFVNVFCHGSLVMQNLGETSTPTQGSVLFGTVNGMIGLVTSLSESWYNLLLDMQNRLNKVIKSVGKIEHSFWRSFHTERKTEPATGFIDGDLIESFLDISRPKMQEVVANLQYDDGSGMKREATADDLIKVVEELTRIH
T3 sequence (Q9UKS7 whole entry): as the sequence (Q9UKS7 whole entry) above
T3 sequence (Q96SW2 whole entry, further chain): as the sequence (Q96SW2 whole entry) above
T3 sequence (Q16531 whole entry partner): as the sequence (Q16531 whole entry partner) above
T1 sequence (Q13422 whole entry Q146F, the tested form may be a part): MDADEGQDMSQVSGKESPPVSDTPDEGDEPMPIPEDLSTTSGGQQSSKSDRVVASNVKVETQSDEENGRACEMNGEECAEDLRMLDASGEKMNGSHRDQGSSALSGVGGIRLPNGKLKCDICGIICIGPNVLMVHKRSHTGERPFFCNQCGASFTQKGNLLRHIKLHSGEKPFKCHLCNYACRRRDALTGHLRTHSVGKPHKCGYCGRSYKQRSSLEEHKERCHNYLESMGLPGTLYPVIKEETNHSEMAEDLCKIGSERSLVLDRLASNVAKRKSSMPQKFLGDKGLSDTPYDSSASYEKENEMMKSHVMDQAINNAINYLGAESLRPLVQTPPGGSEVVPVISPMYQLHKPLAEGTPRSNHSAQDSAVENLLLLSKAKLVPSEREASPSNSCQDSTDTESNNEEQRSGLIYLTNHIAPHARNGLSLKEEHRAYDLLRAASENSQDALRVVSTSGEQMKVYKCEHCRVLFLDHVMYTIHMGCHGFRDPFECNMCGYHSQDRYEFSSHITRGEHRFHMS

SMILES	DC50 [1] [µM]	Dmax [1] [%]	DC50 (Helios [2]; read-out: Helios Jurkat Hibit IC50, 18 hr) [µM]	Helios Jurkat Hibit YMax (Helios [2]) [%]	DC50 (Helios [3]) [µM]
O=C1CCC(N2Cc3c(cc(F)c(C4(O)CCN(Cc5ccc(C(F)(F)F)cc5)CC4)c3F)C2=O)C(=O)N1 (stereo not drawn) [Compound 11, 3-(4,6-difluoro-5-(4-hydroxy-1-(4-(trifluoromethyl)benzyl)piperidin-4-yl)-1-oxoisoindolin-2-yl)piperidine-2,6-dione]	0.00491	83.5	≥ 10	–	–
Cc1ccc(CN2CCC(c3c(F)cc4c(c3F)CN(C3CCC(=O)NC3=O)C4=O)CC2)cc1F (stereo not drawn) [Compound 46, 3-(4,6-difluoro-5-(1-(3-fluoro-4-methylbenzyl)piperidin-4-yl)-1-oxoisoindolin-2-yl)piperidine-2,6-dione]	0.000112	91.8	–	50.8729	6520
O=C1CCC(N2Cc3c(cc(F)c(C4CCN(Cc5ccc6[nH]ncc6c5)CC4)c3F)C2=O)C(=O)N1 (stereo not drawn) [Compound 63, 3-(5-(1-((1H-indazol-5-yl)methyl)piperidin-4-yl)-4,6-difluoro-1-oxoisoindolin-2-yl)piperidine-2,6-dione]	0.000103	93	–	55.0199	3.31
CC1(C)Cc2cccc(CN3CCN(Cc4c(F)cc5c(c4F)CN(C4CCC(=O)NC4=O)C5=O)CC3)c2O1 (stereo not drawn) [Compound 75, 3-(5-((4-((2,2-dimethyl-2,3-dihydrobenzofuran-7-yl)methyl)piperazin-1-yl)methyl)-4,6-difluoro-1-oxoisoindolin-2-yl)piperidine-2,6-dione]	0.00332	89	–	65.5325	0.0651
O=C1CCC(N2Cc3c(cc(F)c(CN4CCN(Cc5ccc6c(c5)OCCO6)CC4)c3F)C2=O)C(=O)N1 (stereo not drawn) [Compound 76, 3-(5-((4-((2,3-dihydrobenzo[b][1,4]dioxin-6-yl)methyl)piperazin-1-yl)methyl)-4,6-difluoro-1-oxoisoindolin-2-yl)piperidine-2,6-dione]	0.00489	88.8	–	72.1901	0.0063
O=C1CCC(N2Cc3c(cc(F)c(C4CCN(Cc5ccc6[nH]ccc6c5)CC4)c3F)C2=O)C(=O)N1 (stereo not drawn) [Compound 61, 3-(5-(1-((1H-indol-5-yl)methyl)piperidin-4-yl)-4,6-difluoro-1-oxoisoindolin-2-yl)piperidine-2,6-dione]	0.000204	93.4	–	59.5442	0.152
Cc1cc(-c2cc(F)c3c(c2)CN(C2CCC(=O)NC2=O)C3=O)nc(N)c1C (stereo not drawn) [Compound 16, 3-(5-(6-amino-4,5-dimethylpyridin-2-yl)-7-fluoro-1-oxoisoindolin-2-yl)piperidine-2,6-dione]	0.00267	92.9	–	64.8253	0.012
O=C1CCC(N2Cc3c(cc(F)c(C4CCN(Cc5ccc(C(F)(F)F)cc5O)CC4)c3F)C2=O)C(=O)N1 (stereo not drawn) [Compound 55, 3-(4,6-difluoro-5-(1-(2-hydroxy-4-(trifluoromethyl)benzyl)piperidin-4-yl)-1-oxoisoindolin-2-yl)piperidine-2,6-dione]	0.000468	88.7	–	–	≥ 10
O=C1CCC(N2Cc3c(cc(F)c(C4CCN(Cc5ccc(C(F)(F)F)cc5)CC4)c3F)C2=O)C(=O)N1 (stereo not drawn) [Compound 52, 3-(4,6-difluoro-1-oxo-5-(1-(4-(trifluoromethyl)benzyl)piperidin-4-yl)isoindolin-2-yl)piperidine-2,6-dione]	0.00091	91.8	–	–	≥ 10
COc1ccc(CN2CCC(O)(c3c(F)cc4c(c3F)CN(C3CCC(=O)NC3=O)C4=O)CC2)nc1 (stereo not drawn) [Compound 37, 3-(4,6-difluoro-5-(4-hydroxy-1-((5-methoxypyridin-2-yl)methyl)piperidin-4-yl)-1-oxoisoindolin-2-yl)piperidine-2,6-dione]	0.0332	62.5	–	–	≥ 10
CS(=O)(=O)c1ccc(CN2CCC(c3c(F)cc4c(c3F)CN(C3CCC(=O)NC3=O)C4=O)CC2)cc1 (stereo not drawn) [Compound 62, 3-(4,6-difluoro-5-(1-(4-(methylsulfonyl)benzyl)piperidin-4-yl)-1-oxoisoindolin-2-yl)piperidine-2,6-dione]	0.000168	92.6	–	–	≥ 10
O=C1CCC(N2Cc3c(cc(F)c(C4(O)CCN(Cc5ccc6ncsc6c5)CC4)c3F)C2=O)C(=O)N1 (stereo not drawn) [Compound 12]	0.00433	83.4	–	–	≥ 10
